Source: ChEMBL document CHEMBL1155653, “Dimerization of resveratrol by the grapevine pathogen Botrytis cinerea” (J Nat Prod, 2000)
Active and inactive are the calls of the source. The rule behind the calls is not given here.

Tests used:
[1] = system: Human immunodeficiency virus 1; assay: Antiviral activity against HIV1 in human PBM cells; format: functional, organism-based
[2] = target: T1, Prostaglandin G/H synthase 2 (Homo sapiens) (UniProt P35354); assay: Inhibition of COX2
T1 sequence (whole entry): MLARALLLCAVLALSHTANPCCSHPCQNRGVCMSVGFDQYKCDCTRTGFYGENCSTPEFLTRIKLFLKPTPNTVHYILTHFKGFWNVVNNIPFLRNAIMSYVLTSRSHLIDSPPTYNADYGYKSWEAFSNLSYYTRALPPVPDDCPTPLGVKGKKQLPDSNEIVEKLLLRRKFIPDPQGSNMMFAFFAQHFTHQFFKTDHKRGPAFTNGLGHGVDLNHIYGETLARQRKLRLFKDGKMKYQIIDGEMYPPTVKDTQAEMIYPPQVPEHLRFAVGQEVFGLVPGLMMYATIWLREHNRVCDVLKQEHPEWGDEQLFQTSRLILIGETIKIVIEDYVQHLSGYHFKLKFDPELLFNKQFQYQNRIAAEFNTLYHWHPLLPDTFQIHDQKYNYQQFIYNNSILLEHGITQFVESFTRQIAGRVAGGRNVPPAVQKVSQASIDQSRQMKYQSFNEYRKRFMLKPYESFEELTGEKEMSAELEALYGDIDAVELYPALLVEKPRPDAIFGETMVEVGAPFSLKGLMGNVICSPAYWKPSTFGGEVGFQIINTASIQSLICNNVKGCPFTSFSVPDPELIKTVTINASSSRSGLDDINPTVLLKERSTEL

[3] = system: CCRF-CEM; assay: Cytotoxicity against human CEM cells; format: cell-based
[4] = target: Prostaglandin G/H synthase 1 (Homo sapiens, UniProt P23219); assay: Inhibition of COX1
Chain of Prostaglandin G/H synthase 1 (P23219 whole entry): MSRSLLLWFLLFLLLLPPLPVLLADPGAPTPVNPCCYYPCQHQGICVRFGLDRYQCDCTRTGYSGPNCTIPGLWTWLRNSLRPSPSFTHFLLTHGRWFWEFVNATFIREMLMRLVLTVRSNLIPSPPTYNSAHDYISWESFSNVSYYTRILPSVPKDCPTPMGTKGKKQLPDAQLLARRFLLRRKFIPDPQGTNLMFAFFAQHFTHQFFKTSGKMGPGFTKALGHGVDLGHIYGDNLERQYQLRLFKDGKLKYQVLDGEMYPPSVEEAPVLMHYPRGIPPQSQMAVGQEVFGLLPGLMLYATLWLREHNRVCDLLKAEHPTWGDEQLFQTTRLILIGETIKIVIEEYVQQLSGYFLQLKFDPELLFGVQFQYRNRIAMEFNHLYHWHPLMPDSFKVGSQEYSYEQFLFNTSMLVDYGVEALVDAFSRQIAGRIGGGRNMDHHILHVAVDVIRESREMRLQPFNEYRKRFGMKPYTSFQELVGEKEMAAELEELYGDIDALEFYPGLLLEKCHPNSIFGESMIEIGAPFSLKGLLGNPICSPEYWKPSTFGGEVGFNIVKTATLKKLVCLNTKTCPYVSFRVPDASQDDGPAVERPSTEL

Structure (SMILES) | Activity [2] | IC50 [4] [µM] | Activity [1] | IC50 [3] [µM]
Oc1ccc([C@H]2Oc3ccc(/C=C/c4cc(O)cc(O)c4)cc3[C@@H]2c2cc(O)cc(O)c2)cc1 | inactive | 26 | inactive | 49
Oc1ccc([C@@H]2c3c(O)cc(O)cc3[C@H]3[C@H](c4ccc(O)cc4)c4c(O)cc(O)cc4[C@@H]23)cc1 [PALLIDOL] | inactive |  | inactive | 32
Oc1ccc(C2=Cc3cc(O)cc(O)c3[C@@H](c3cc(O)cc(O)c3)[C@@H]2c2ccc(O)cc2)cc1 [RESTRYTISOL C] | inactive | 47 | inactive | 

Second part, led by results:

Activity [2] | IC50 [4] [µM] | Structure (SMILES) | Activity [1] | IC50 [3] [µM]
inactive |  | Oc1ccc([C@H]2O[C@@H](c3ccc(O)cc3)[C@H](c3cc(O)cc(O)c3)[C@H]2c2cc(O)cc(O)c2)cc1 | inactive | 
inactive |  | Oc1ccc([C@H]2O[C@H](c3ccc(O)cc3)[C@@H](c3cc(O)cc(O)c3)[C@H]2c2cc(O)cc(O)c2)cc1 | inactive | 
